According to patent US4845219A, “Nitrogen- and sulfur-containing lipid compounds their production and use” (Takeda Chemical Industries, Ltd., priority 1986, dated 1989):
Counter-ions that a name gives are not always drawn.

Assays:
MM46 cells = test: Life-span prolongation of MM46-inoculated C3H/He mice (Test Example 2); type: in vivo; settings: MM46 1×10^4 cells/mouse i.p.; for Life-Span Prolongation Ratio (T/C, %): 0.25 mg/mouse i.p. for consecutive 4 days from second day after inoculation, only mice of survival days less than 60 days, control = 100; for No. of survivors/No. of tested mice: 0.25 mg/mouse i.p. for consecutive 4 days, 60th day, control 0/5
Description: C3H/He mice (a group consisting of five mice) were inoculated intraperitoneally with 1×10^4 MM46 cells per mouse, and each mouse was intraperitoneally given 0.25 mg of drug for consecutive 4 days, starting from the second day after the inoculation. Shown in Table 2 are the life-span prolongation ratio ragarding the died mice in the group treated with drug against those in the control group not treated with drug (only related to mice of survival days less than 60 days) and the number of survived mice on the 60th day after the inoculation of MM46.

[1] = literature; cited from earlier work
Sarcoma 180 cells = test: Life-span prolongation of Sarcoma 180-inoculated ICR mice (Test Example 1); type: in vivo; settings: Sarcoma 180 1×10^5 cells/mouse i.p.; for Life-Span Prolongation Ratio (T/C, %): 0.33 mg/mouse i.p. three times (1 hour, 1 day, 2 days after inoculation), only mice of survival days less than 60 days, control = 100; for 60th day: No. of survivors/No. of tested mice: 0.33 mg/mouse i.p. three times, control 0/5
Description: ICR mice (a group consisting of five mice) were inoculated intraperitoneally with 1×10^5 Sarcoma 180 cells per mouse, and then given intraperitoneally 0.33 mg/mouse of the compound prepared in the present invention dissolved in physiological saline, three times in total, 1 hour, 1 day and 2 days after the inoculation. Also, the control compound [III] was given to mice under the same conditions. Shown in Table 1 are the life-span prolongation ratio against the control group not treated with drug (only related to mice of survival days less than 60 days) and the number of survived mice on the 60th day after the initiation of the test.

platelets = settings: literature; cited from earlier work
tumor cells = settings: compound [III], literature; cited from earlier work
[2] = tested on: human myelogenic leukaemia cells HL-60; test: Proliferation inhibiting activity against HL-60 (Test Example 3); type: cell-based; settings: HL-60 cells, read-out: Inhibitory concentration against HL-60 (IC50, μg/ml)
Description: Proliferation inhibiting activity (IC50) of the compound of the present invention againsts human myelogenic leukaemia cells HL-60 was measured according to the method of R. Gallo et al [Blood, vol.

[3] = tested on: platelet aggregation by PAF, washed PRP; test: PAF inhibiting activity in platelet aggregation (Test Example 4); type: cell-based; settings: Oryctolagus cuniculus, PAF 3×10^-7 M, rabbit washed PRP, 37° C., relative to maximum aggregation of control PRP by PAF, read-out: Inhibiting Ratio; for inhibition at 30 µM: medicine concentration 3 × 10^-5 M; for inhibition at 3 µM: medicine concentration 3 × 10^-6 M
Description: Using a syringe containing 3.15% citric acid (1 part per 9 parts of blood) as a blood coagulation inhibitor, blood was taken from male rabbit. The blood was then centrifuged at 1000 rpm at room temperature for 10 minutes to obtain a platelet rich plasma (PRP). This PRP was further centrifuged at 1400 rpm for 15 minutes to obtain a platelet pellet. The pellet was suspended in Ca^++ -free Tyrode containing 0.25% gelatin to obtain washed PRP. This PRP (250 μl) was stirred at 37° C. for 2 minutes, to which was then added 25 μl of a 0.2-0.5 mM Ca^++ solution. After this mixture had been stirred for 30 seconds, a medicine to be tested was added thereto. After 2 minutes stirring, 3×10^-7 M of PAF was added to the mixture. Pellet aggregation was measured by means of a platelet aggregometer (manufactured by Rika Denki, Japan). The activity of the test samples was determined in terms of an inhibiting ratio relative to the maximum transmittance (maximum aggregation ratio) of control PRP by PAF.

SMILES | Life-Span Prolongation Ratio (T/C, %) (MM46 cells) [%] | No. of survivors/No. of tested mice (MM46 cells) | hypotensive and other side-effect activity [1] | Life-Span Prolongation Ratio (T/C, %) (Sarcoma 180 cells) [%] | 60th day: No. of survivors/No. of tested mice (Sarcoma 180 cells) | platelet activating / aggregating activity (platelets) | anti-tumor activity (tumor cells) | IC50 [2] [µg/mL] | inhibition at 30 µM [3] [%] | inhibition at 3 µM [3] [%]
CCCCCCCCCCCCCCCCCCOCC(COP(=O)([O-])OCC[N+](C)(C)C)OC (centres unmarked) [Compound [III], reference compound] | 155 | 0/5 | hypotensive activity and local stimulating activity | 162 | 0/5 | platelet activating property | anti-tumor activity | – | – | –
CCCCCCCCCCCCCCCCCCOCC(CS(=O)(=O)CCC[N+](C)(C)C)OC.CS(=O)(=O)[O-] (centres unmarked) [Example 30, 3-[(2-methoxy-3-octadecyloxypropyl)sulfonyl]propyltrimethylammonium mesylate] | 225 | 4/5 | – | 350 | 0/5 | – | – | 1.25 | – | –
CCCCCCCCCCCCCCCCCCOCC(CS(=O)(=O)CCCCCC[N+](C)(C)C)OC.CS(=O)(=O)[O-] (centres unmarked) [Example 31, 6-[(2-methoxy-3-octadecyloxypropyl)sulfonyl]hexyltrimethylammonium mesylate] | – | – | – | 273 | 0/5 | – | – | 5 | 100 | 100
CCCCCCCCCCCCCCCCCCOCC(CCS(=O)(=O)CCC[N+](C)(C)C)OC.CS(=O)(=O)[O-] (centres unmarked) [Example 36, 3-[(3-methoxy-4-octadecyloxybutyl)sulfonyl]propyltrimethylammonium mesylate] | – | – | – | 242 | 1/5 | – | – | 2.5 | – | –
CCCCCCCCCCCCCCCCCCOCC(CC[S+]([O-])CCC[N+](C)(C)C)OC.CS(=O)(=O)[O-] (centres unmarked) [Example 37, 3-[(3-methoxy-4-octadecyloxybutyl)sulfinyl]propyltrimethylammonium mesylate] | – | – | – | 326 | 0/5 | – | – | 2.5 | – | –
CCCCCCCCCCCCCCCCCCOCC(CSCCC[N+](C)(C)C)OC.CS(=O)(=O)[O-] (centres unmarked) [Example 38, 3-[(2-methoxy-3-octadecyloxypropyl)thio]propyltrimethylammonium mesylate] | – | – | – | – | – | – | – | 5 | – | –
CCCCCCCCCCCCCCCCCCOCC(CS(=O)(=O)CCC[n+]1ccccc1)OC (centres unmarked) [Example 45, N[3-((2-Methoxy-3-octadecyloxypropyl)sulfony)propyl]pyridinium mesylate] | – | – | – | – | – | – | – | 1.25 | 100 | 82
CCCCCCCCCCCCCCCCCCNC(=O)OCC(CS(=O)(=O)CCC[n+]1ccccc1)OC (centres unmarked) [Example 46, N-[3-((2-Methoxy-3-octadecylcarbamoyloxypropyl)sulfonyl)propyl]-pyridinium mesylate] | – | – | – | – | – | – | – | – | 100 | 100
CCCCCCCCCCCCCCCCCCOCC(CCS(=O)(=O)CCC[n+]1ccccc1)OC.CS(=O)(=O)[O-] (centres unmarked) [Example 47, N-[3-((3-Methoxy-4-octadecyloxybutyl)sulfonyl)propyl]pyridinium mesylate] | – | – | – | – | – | – | – | 1.25 | 100 | 73
CCCCCCCCCCCCCCCCCCOCC(CCS(=O)(=O)CCC[n+]1ccsc1)OC.CS(=O)(=O)[O-] (centres unmarked) [Example 48, N-[3-((3-Methoxy-4-octadecyloxybutyl)sulfonyl)propyl]thiazolium mesylate] | – | – | – | – | – | – | – | 2.5 | 100 | 65
